Common to all, as to format: cell-based
The target of test [1] is T1, GLP-1 receptor (Homo sapiens, UniProt P43220). As to the kind of experiment: FLIPR calcium flux assay, agonist format, GLP-1. As to conditions: Emax of reference ligand Glucagon as 100%; for % Activation Agonist GLP-1: 1 μM. How it is done:
(§1) A FLIPR assay was conducted to monitor agonist and antagonist selectivity for compounds of the invention against the CBI and GLP-1 receptors. Percentage activation and percentage inhibition values were determined for each compound on each of the GPCRs listed above. Agonist selectivity was determined upon initial addition of compounds followed by 10 minute incubation at 25° C. Following compound incubation, reference agonists were added at EC80 to determine percentage inhibition.
(§2) Agonist percentage activation determinations were obtained by assaying sample compounds and referencing the Emax control for each of the GPCRs profiled. Antagonist percentage inhibition determinations were obtained by assaying sample compounds and referencing the control EC80 wells for each of the GPCRs profiled. The protocol design is as follows:
(§3) Unless specified otherwise, all sample compounds were diluted in 100% anhydrous DMSO including all serial dilutions. Occasionally sample compounds were provided in a different solvent, in this case all master stock dilutions were performed in the specified diluent. All control wells contained identical solvent final concentrations as sample compound wells.
(§4) Sample compounds were transferred from a master stock solution into a daughter plate that was used in the assay. Each sample compound was diluted into assay buffer (1×HBSS with 20 mM HEPES) at an appropriate concentration to obtain final concentrations.
(§5) All sample compounds were plated at 1 μM in duplicate for assaying against all GPCRs. Reference agonists were handled as mentioned above serving as assay control. These reference agonists were handled as described above for both EMax and EC80 control wells. Assay was read for 90 seconds using the FLIPRTETRA. (This assay run added sample compounds and reference agonist to respective rows.) At the completion of the first “Single Addition” assay run, assay plate was removed from the FLIPRTetra and placed at 25° C. for 10 minutes.
(§6) All plates were subjected to appropriate baseline corrections. Once baseline corrections were processed, maximum fluorescence values were exported and data manipulated to calculate percentage activation, percentage inhibition, Z′, EC50, and IC50. Percentage activation data was calculated using Emax as 100% control. Percentage inhibition was calculated using EC80 as 0% inhibition.

Test [2] concerns the target T1, GLP-1 receptor. As to the kind of experiment: FLIPR calcium flux assay, antagonist format, GLP-1. The settings on record: for inhibition at 1 µM: read-out: % Inhibition Antagonist GLP-1. How it is done:
as §1, §2, §3, §4
(§7) Using the EC50 values determined previously, stimulated all pre-incubated sample compound and reference antagonist (if applicable) wells with EC80 of reference agonist. Read for 90 seconds using the FLIPRTETRA. (This assay added reference agonist to respective wells—then fluorescence measurements were collected to calculate percentage inhibition.)
as §6

For test [3], the target named is T2, CB1 receptor (Homo sapiens, UniProt P21554). As to the kind of experiment: FLIPR calcium flux assay, antagonist format, CB1. As to conditions: reference agonist CP-55,940 at EC80 as 0% inhibition; for % Inhibition Antagonist CB1: 1 μM. As for the experimental part: as §1, §2, §3, §4, §7, §6
T2 sequence (P21554 whole entry): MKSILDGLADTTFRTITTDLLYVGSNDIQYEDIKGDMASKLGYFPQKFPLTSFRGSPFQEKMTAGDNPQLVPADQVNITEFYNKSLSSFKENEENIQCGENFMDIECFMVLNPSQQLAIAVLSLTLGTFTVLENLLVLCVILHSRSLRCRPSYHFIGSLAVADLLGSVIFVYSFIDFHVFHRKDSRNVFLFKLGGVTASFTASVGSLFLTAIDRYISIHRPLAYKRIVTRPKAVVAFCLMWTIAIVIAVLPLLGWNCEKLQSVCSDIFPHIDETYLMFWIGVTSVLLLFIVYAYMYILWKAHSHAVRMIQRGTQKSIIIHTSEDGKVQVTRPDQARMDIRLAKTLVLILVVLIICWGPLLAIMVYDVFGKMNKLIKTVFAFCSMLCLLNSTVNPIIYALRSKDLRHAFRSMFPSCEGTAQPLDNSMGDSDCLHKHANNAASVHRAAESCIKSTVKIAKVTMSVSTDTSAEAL
The target in test [4] is T2, CB1 receptor. Kind of test: FLIPR calcium flux assay, agonist format, CB1. As to conditions: Emax of reference agonist CP-55,940 as 100%; for % Activation Agonist CB1: 1 μM. As for the experimental part: as §1, §2, §3, §4, §5, §6
[5] abbreviates: 1 μM, reference ligand Glucagon at EC80 as 0% inhibition.

Like-named read-outs stand apart in the source and are kept apart here.

The results in this text go back to patent US20100292289A1 (priority 2007, published 2010).

T1 sequence (P43220 24-463): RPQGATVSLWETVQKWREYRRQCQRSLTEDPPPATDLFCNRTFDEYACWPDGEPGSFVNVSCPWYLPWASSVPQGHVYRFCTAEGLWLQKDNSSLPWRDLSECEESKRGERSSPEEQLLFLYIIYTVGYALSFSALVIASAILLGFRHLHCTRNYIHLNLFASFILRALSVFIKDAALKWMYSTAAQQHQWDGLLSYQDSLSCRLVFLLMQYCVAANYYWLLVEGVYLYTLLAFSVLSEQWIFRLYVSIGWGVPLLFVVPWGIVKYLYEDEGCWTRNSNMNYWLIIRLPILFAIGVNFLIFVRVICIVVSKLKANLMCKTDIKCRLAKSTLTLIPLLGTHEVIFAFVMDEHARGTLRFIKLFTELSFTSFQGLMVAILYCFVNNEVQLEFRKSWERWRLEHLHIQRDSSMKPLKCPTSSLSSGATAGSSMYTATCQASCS

`CC(C)Cc1cccc(C(C)C(=O)N(C)CC[C@H](Oc2ccc(C(F)(F)F)cc2)c2ccccc2)c1` (stereo partly drawn) [Compound 35b]: the activation at 1 µM in test [1] was determined as 3.8%; in test [4] it was 1.1%. Moreover, the inhibition at 1 µM in test [2] (setting [5]) stood at 0.3%; in test [3] it was 38.9%.

Regarding `C[C@H](C(=O)N(C)CC[C@@H](Oc1ccc(C(F)(F)F)cc1)c1ccccc1)c1ccc(C(F)(F)F)cc1` [Compound 33d], the activation at 1 µM was determined as 0.6% in test [1] and 1.4% in test [4]. Besides, the inhibition at 1 µM was determined as 11.4% in test [2] (setting [5]) and 82.8% in test [3].

Regarding `CC(C)Cc1ccc(C2(C(=O)N(C)CC[C@H](Oc3ccc(C(F)(F)F)cc3)c3ccccc3)CC2)cc1` [Compound 36b], the values for the activation at 1 µM in test [1] and in test [4] were 0.5% and -1.1%, respectively. Besides, the inhibition at 1 µM in test [2] (setting [5]) came out at 5.5%; in test [3] it was 15.5%.

In the case of `CC(C(=O)N(C)CC[C@@H](Oc1ccc(C(F)(F)F)cc1)c1ccccc1)c1ccc(CN(C)C)cc1` (stereo partly drawn) [Compound 25a], the activation at 1 µM in test [1] was -2.7%; in test [4], 0.8%. Moreover, the inhibition at 1 µM is 5.7% in test [2] (setting [5]) and 79.9% in test [3].

For `CC(C(=O)N(C)CC[C@H](Oc1ccc(C(F)(F)F)cc1)c1ccccc1)c1ccc(CC2CCCC2=O)cc1` (stereo partly drawn) [Compound 29b], the “% Activation Agonist GLP-1” value in test [1] is 6.2%. Besides, in test [2] (setting [5]), the “% Inhibition Antagonist GLP-1” value is recorded as 0.0%. In test [3], the “% Inhibition Antagonist CB1” value is reported as 31.2%. Besides, in test [4], the “% Activation Agonist CB1” value is −0.2%.

For the molecule `CC(C(=O)N(C)CC[C@H](Oc1ccc(C(F)(F)F)cc1)c1ccccc1)c1ccc(C(F)(F)F)cc1` (stereo partly drawn) [Compound 33b], the activation at 1 µM was 17.6% in test [1] and 0.5% in test [4]. Further, the inhibition at 1 µM in test [2] (setting [5]) was about 0%; in test [3] it was 45.8%.

As for `CCc1ccc(C(C)C(=O)N(C)CC[C@@H](Oc2ccc(C(F)(F)F)cc2)c2ccccc2)cc1` (stereo partly drawn) [Compound 34a], the values for the activation at 1 µM in test [1] and in test [4] were -0.8% and -2.9%, respectively. For the same molecule, the inhibition at 1 µM in test [2] (setting [5]) is -1%; in test [3] it was 99%.

Take `CC(C)Cc1ccc(CC(=O)N(C)CC[C@H](Oc2ccc(C(F)(F)F)cc2)c2ccccc2)cc1` [Compound 32b]: the “% Activation Agonist GLP-1” value in test [1] is −1.8%. Also, the “% Inhibition Antagonist GLP-1” value in test [2] (setting [5]) was −0.8%. For the same molecule, in test [3], the “% Inhibition Antagonist CB1” value turned out to be 23.0%. Further, the “% Activation Agonist CB1” value in test [4] stood at 2.1%.

As for `C[C@@H](C(=O)N(C)CC[C@H](Oc1ccc(C(F)(F)F)cc1)c1ccccc1)c1ccc(C(F)(F)F)cc1` [Compound 33e], the figures for the activation at 1 µM in test [1] and in test [4] were 0.4% and 1.7%, respectively. The inhibition at 1 µM in test [2] (setting [5]) turned out to be 9.4%; in test [3], 0.8%.

With `CN(CCC(Oc1ccc(C(F)(F)F)cc1)c1ccccc1)C(=O)C1CCn2c(C(=O)c3ccccc3)ccc21` (stereo not drawn) [Compound 13], the activation at 1 µM in test [1] is 0.8%; in test [4], 0.9%. Moreover, the figures for the inhibition at 1 µM in test [2] (setting [5]) and in test [3] were -15.4% and 37.7%, respectively.

For the molecule `C[C@@H](C(=O)N(C)CC[C@@H](Oc1ccc(C(F)(F)F)cc1)c1ccccc1)c1ccc(C(F)(F)F)cc1` [Compound 33c], the activation at 1 µM was 0.8% in test [1] and -0.9% in test [4]. The inhibition at 1 µM in test [2] (setting [5]) was 0.2%; in test [3] it was 80.1%.

As to `CC(C)Cc1cccc(C(C)C(=O)N(C)CC[C@@H](Oc2ccc(C(F)(F)F)cc2)c2ccccc2)c1` (stereo partly drawn) [Compound 35a], the activation at 1 µM is -0.9% in test [1] and -1% in test [4]. Further, the inhibition at 1 µM in test [2] (setting [5]) was 7.7%; in test [3], 80.5%.

Turning to `C[C@H]1CCN(C(C(=O)NCCOc2ccc(C(F)(F)F)cc2)c2nc(-c3ccc(C(F)(F)F)cc3)no2)C[C@@H]1COc1ccc(C(F)(F)F)cc1` (stereo partly drawn) [Compound 20], the “% Activation Agonist GLP-1” value in test [1] worked out at 7.5%. Further, the “% Inhibition Antagonist GLP-1” value in test [2] (setting [5]) is on record as −14.4%. For the same molecule, the “% Inhibition Antagonist CB1” value in test [3] came out at 14.5%. The “% Activation Agonist CB1” value in test [4] came to 1.9%.

As to `CC(C)Cc1ccc(CC(=O)N(C)CC[C@@H](Oc2ccc(C(F)(F)F)cc2)c2ccccc2)cc1` [Compound 32a], the figures for the activation at 1 µM in test [1] and in test [4] were 2.9% and 4.5%, respectively. For the same molecule, the inhibition at 1 µM in test [2] (setting [5]) was 0.8%; in test [3] it was 90.7%.

On to `O=C(Cc1nc(-c2ccc(C(F)(F)F)cc2)no1)NCC[C@@H](Oc1ccc(C(F)(F)F)cc1)c1ccccc1` [Compound 23], for which, in test [1], the “% Activation Agonist GLP-1” value was 11.9%. Further, the “% Activation Agonist CB1” value in test [4] was determined as 7.8%.

Turning to `CC(C)Cc1ccccc1C(C)C(=O)N(C)CC[C@@H](Oc1ccc(C(F)(F)F)cc1)c1ccccc1` (stereo partly drawn) [Compound 38a], the results for the inhibition at 1 µM in test [2] and in test [3] were -20.2% and 98.5%, respectively.

Consider `COc1ccc2c(c1)c(CC(=O)N(C)CCC(Oc1ccc(C(F)(F)F)cc1)c1ccccc1)c(C)n2C(=O)c1ccc(Cl)cc1` (stereo not drawn) [Compound 15], for which the activation at 1 µM in test [1] was -0.2%; in test [4], 0%. Also, the inhibition at 1 µM in test [2] (setting [5]) was -5.1%; in test [3], 34.4%.

With `CC(C)Cc1ccc(C2(C(=O)N(C)CC[C@@H](Oc3ccc(C(F)(F)F)cc3)c3ccccc3)CC2)cc1` [Compound 36a], the figures for the activation at 1 µM in test [1] and in test [4] were 4.4% and -1.2%, respectively. The inhibition at 1 µM worked out at 11% in test [2] (setting [5]) and 59.9% in test [3].

Consider `C[C@H](C(=O)N(C)CC[C@H](Oc1ccc(C(F)(F)F)cc1)c1ccccc1)c1ccc(C(F)(F)F)cc1` [Compound 33f], for which the activation at 1 µM is -3.5% in test [1] and -0.5% in test [4]. Moreover, the results for the inhibition at 1 µM in test [2] (setting [5]) and in test [3] were 11.5% and 34%, respectively.

As to `CC(C(=O)N(C)CC[C@H](Oc1ccc(C(F)(F)F)cc1)c1ccccc1)c1ccc(CN(C)C)cc1` (stereo partly drawn) [Compound 25b], the activation at 1 µM in test [1] is -3.3%; in test [4], 0.2%. The results for the inhibition at 1 µM in test [2] (setting [5]) and in test [3] were 6.9% and 15.2%, respectively.

For the molecule `C[C@@H]1CCN(C(C(=O)NCC[C@@H](Oc2ccc(C(F)(F)F)cc2)c2ccccc2)c2nc(-c3ccc(C(F)(F)F)cc3)no2)C[C@@H]1COc1ccc(C(F)(F)F)cc1` (stereo partly drawn) [Compound 18], in test [1], the “% Activation Agonist GLP-1” value is 20.6%. The “% Activation Agonist CB1” value in test [4] came to 6.2%.

For the molecule `CC(C)Cc1ccc(C2(C(=O)N(C)CC[C@@H](Oc3ccc(C(F)(F)F)cc3)c3ccccc3)CCC2)cc1` [Compound 30a], the “% Activation Agonist GLP-1” value in test [1] was −3.7%. Further, the “% Inhibition Antagonist GLP-1” value in test [2] (setting [5]) worked out at 7.5%. For the same molecule, the “% Inhibition Antagonist CB1” value in test [3] is reported as 84.6%. Also, the “% Activation Agonist CB1” value in test [4] is recorded as 1.0%.

For `O=C(NCC[C@@H](Oc1ccc(C(F)(F)F)cc1)c1ccccc1)C(c1nc(-c2ccc(C(F)(F)F)cc2)no1)N1CCC[C@@H](COc2ccc(C(F)(F)F)cc2)C1` (stereo partly drawn) [Compound 19], the “% Activation Agonist GLP-1” value in test [1] turned out to be 6.5%. For the same molecule, the “% Activation Agonist CB1” value in test [4] was 0.5%.

For the molecule `COc1ccc2c(c1)c(CC(=O)NCC[C@@H](Oc1ccc(C(F)(F)F)cc1)c1ccccc1)c(C)n2C(=O)c1ccc(Cl)cc1` [Compound 7a], the activation at 1 µM was 4.2% in test [1] and -0.5% in test [4]. Also, the inhibition at 1 µM turned out to be 0% in test [2] (setting [5]) and 46.9% in test [3].

For `O=C(c1ccccc1)c1ccc2n1CCC2C(=O)NCC[C@@H](Oc1ccc(C(F)(F)F)cc1)c1ccccc1` (stereo partly drawn) [Compound 5a], the activation at 1 µM turned out to be 0.4% in test [1] and 0.3% in test [4]. Besides, the inhibition at 1 µM in test [2] (setting [5]) is -6.3%; in test [3], 48.7%.

As to `C[C@H]1CCN(C(C(=O)NCC[C@@H](Oc2ccc(C(F)(F)F)cc2)c2ccccc2)c2nc(-c3ccc(C(F)(F)F)cc3)no2)C[C@@H]1COc1ccc(C(F)(F)F)cc1` (stereo partly drawn) [Compound 17], the “% Activation Agonist GLP-1” value in test [1] worked out at 9.4%. For the same molecule, the “% Activation Agonist CB1” value in test [4] is 8.6%.

Consider `CN(Cc1ccccc1)C1CCN(C(C(=O)NCC[C@@H](Oc2ccc(C(F)(F)F)cc2)c2ccccc2)c2nc(-c3ccc(C(F)(F)F)cc3)no2)CC1` (stereo partly drawn) [Compound 16], for which the activation at 1 µM in test [1] came to 21.3%; in test [4] it was 6.9%.
